Test results as given in patent EP2711007A1, “4-Aminopyrazolo[3,4-d]pyrimidine for use in treating or preventing primary and metastatic breast and prostate cancer” (Institut Univ. de Ciència i Tecnologia, S.A., priority 2012, dated 2014).

How the values were obtained:
[1] = test system: MCF-7 breast cancer cell line; assay: Tetrazolium dye proliferation (WST-1) assay, MCF-7; assay type: cell-based; design: proliferation inhibitory effect compared with Gemcitabine: concentration or dose not given beside the values; conditions: 5 days incubation; for proliferation inhibitory effect compared with Gemcitabine: Gemcitabine set to 0, negative = less inhibition than Gemcitabine; for inhibition at 1 µM: Homo sapiens, MCF7, 120 h, concentration not given (primary screen 1 microM), mean±SD, read-out: proliferation inhibitory effect compared with 0.1 % DMSO vehicle control group
Description: (§1) Determination of the ability of compound of formula (I) and combinations between compound of formula (I) and certain therapeutic compounds described herein to inhibit the proliferation of target cells was assayed in vitro against breast and prostate tumour cells. The antiproliferative activity was measured through the commercial WST-1 proliferation measurement reagent in a two-step screening procedure: […] MCF-7 and LNCaP cells were purchased from ATCC. PNT1A cells were purchased from ECACC. The cells were grown in a subconfluent condition to maintain a logarithmic growth phase. The cells were dislodged for passage using trypsin-EDTA. The proliferation of the cell lines was evaluated by using the commercial WST-1 proliferation measurement reagent. Cells from exponentially growing cultures were plated on the 96 well plates at the appropriate seeding density in the optimal medium to give logarithmic growth over the course of the assay. The plates with MCF-7 and PNT1A cells were incubated 24h at 37°C in a humidified CO2 atmosphere to allow for recovery from trypsinization before adding of test and control compounds. […] Control compounds Ara-C and Gemcitabine stock solutions were prepared in sterile water. Each test and control compound was diluted twice the final concentration in appropriate media. Half of the final well volume of each dilution was added in six parallels to plates containing cells. […] The plates were returned to 37°C in a humidified CO2 atmosphere and incubated for 5 days. […] Following incubation the absorbance at a wavelength of 450nm was measured from each well using a multilabel counter. The absorbance at wavelength 450nm correlates linearly to number of viable cells in the well. The means and standard deviations for parallel samples were calculated and plotted as a graph.

[2] = test system: LNCaP prostate cancer cell line; assay: Tetrazolium dye proliferation (WST-1) assay, LNCaP; assay type: cell-based; conditions: 5 days incubation; for inhibition at 1 µM: Homo sapiens, 120 h, concentration not given (primary screen 1 microM), mean±SD, read-out: proliferation inhibitory effect compared with 0.1 % DMSO vehicle control group; for proliferation inhibitory effect compared with Gemcitabine: Gemcitabine set to 0, negative = less inhibition than Gemcitabine
Description: as §1

[3] = test system: PNT1A immortalized normal prostate cell line; assay: Tetrazolium dye proliferation (WST-1) assay, PNT1A; assay type: cell-based; conditions: Homo sapiens, 120 h, 5 days incubation, concentration not given (primary screen 1 microM), mean±SD, read-out: proliferation inhibitory effect compared with 0.1 % DMSO vehicle control group
Description: as §1

[4] = test system: pancreatic cancer cells; assay: Effect on other cancer cells (pancreatic); assay type: cell-based; conditions: other type of cancer cells such as pancreatic cancer cells
[5] = test system: RC and S790 mouse mammary carcinomas; conditions: considered non active; cited from earlier work
[6] = test system: acute leukaemia; conditions: up to 9 patients treated; cited from earlier work

Molecule | proliferation inhibitory effect compared with Gemcitabine [1] | inhibition at 1 µM [1] | inhibition at 1 µM [2] | inhibition at 1 µM [3] | proliferation inhibitory effect compared with Gemcitabine [2] | effect on pancreatic cancer cells [4] | tumor growth inhibition [5] | antitumour activity in man [6]
5-Bromo-2'-deoxyuridine (Broxuridine) [Compound E] | -221.1±50.3% | – | – | – | – | – | – | –
5-Iodo-2'-deoxyuridine (Idoxuridine) [Compound F] | -174.8±33.9% | – | – | – | – | – | – | –
Nc1ccn([C@@H]2O[C@H](CO)[C@@H](O)[C@@H]2O)c(=O)n1 [Ara-C] | – | 78.3 ± 3.9% | 50.1 ± 3.4% | 66.5 ± 1.8% | – | – | – | –
Nc1ncnc2[nH]ncc12 [Compound I, 4-Aminopyrazolo[3,4-d]pyrimidine] | 93.8±2.4% | 98.6 ± 0.5% | 97.9 ± 0.5% | 18 ± 2.1% | 93.1±0.7% | no effect was detected | 10% | did not demonstrate any antitumour activity in man
O=c1[nH]c(=O)n([C@H]2C[C@H](O)[C@@H](CO)O2)cc1F [Floxuridine] | -50.4±35.6% | 66.2 ± 8% | 58.3 ± 1% | 88.3 ± 0.6% | -34.7±3.1% | – | – | –
Nc1ccn([C@@H]2O[C@H](CO)[C@@H](O)C2(F)F)c(=O)n1 [Gemcitabine, 2',2'-difluorodeoxycytidine] | 0% | 80 ± 3.7% | 71.2 ± 0.8% | 98.8 ± 0.3% | 0% | – | – | –
